Reference: US11753409B2, “Crystalline salts of a B-RAF kinase inhibitor” (Xynomic Pharmaceuticals, Inc., priority 2017, dated 2023)
Entries after “also recorded” stand apart in the source; their conditions may differ.

Assays:
Assay type in all cases: physicochemical
[1] = DVS isotherm of Form A (hygroscopicity)
Procedure: DVS was measured via a SMS (Surface Measurement Systems) DVS Intrinsic. The relative humidity at 25° C. was calibrated against the deliquescence point of LiCl, Mg(NO3)2 and KCl.
To investigate the solid form stability as a function of humidity, a DVS isotherm plot of Form A of N-(3-(5-((1-ethylpiperidin-4-yl)(methyl)amino)-3-(pyrimidin-5-yl)-1H-pyrrolo[3,2-b]pyridin-1-yl)-2,4-difluorophenyl)propane-1-sulfonamide monosuccinate salt was collected at 25° C. between 0 and 95% RH.

[2] = Heating to 170° C. and cooling to room temperature; details: heated to 170° C., cooled to room temperature
Procedure: Further XRPD, TGA, DSC and ^1H NMR analyses were performed after heating succinate Form A to 170° C. and then cooling to room temperature.

[3] = Equilibrium solubility of Form A in water
Procedure: Equilibrium solubility of Form A in water was measured at room temperature. The solid was suspended into H2O (˜800 rpm) at rt. After 24 h., the suspension was centrifuged (10000 rpm, 5 min) followed by filtration (0.45 μm PTFE membrane). The supernatant (first few drops were discarded) was analyzed by HPLC and the pH was measured. The residual solid was analyzed by XRPD.

[4] = Solid state stability evaluation
Procedure: Samples of Form A of N-(3-(5-((1-ethylpiperidin-4-yl)(methyl)amino)-3-(pyrimidin-5-yl)-1H-pyrrolo[3,2-b]pyridin-1-yl)-2,4-difluorophenyl)propane-1-sulfonamide monosuccinate salt were stored under at 80° C. for one day, at 25° C. under 60% RH and at 40° C. under 75% RH for one week.

[5] = 25 ° C., 60% RH/1 week (second condition column)
[6] = 25 ° C., 60% RH/1 week (third condition column)

CCCS(=O)(=O)Nc1ccc(F)c(-n2cc(-c3cncnc3)c3nc(N(C)C4CCN(CC)CC4)ccc32)c1F.O=C(O)CCC(=O)O [Monosuccinate Salt, N-(3-(5-((1-Ethylpiperidin-4-yl)(methyl)amino)-3-(pyrimidin-5-yl)-1H-pyrrolo[3,2-b]pyridin-1-yl)-2,4-difluorophenyl)propane-1-sulfonamide monosuccinate salt]
Water uptake (DVS) ([1]; 25° C./80% RH): 0.14%
Hygroscopicity ([1]; DVS at 25° C., 0 to 95% RH, listed as Form A, monosuccinate salt): non-hygroscopic; also recorded: low hygroscopicity
Form change after DVS testing (XRPD) ([1]; listed as Form A, monosuccinate salt): did not result in any form change; also recorded: does not change form
Crystalline form after heating (XRPD) [2]: still succinate Type A
Form change during equilibrium solubility testing (XRPD) ([3]; rt, 24 h, listed as Form A, monosuccinate salt): no form change; also recorded: does not change
solubility thermodynamic at 24 h ([3]; thermodynamic from solid, room temperature, HPLC): 14.3 mg/mL
Form Change [4, 5]: No
Purity (% of Initial) [4, 5]: 100.0 % of Initial
Form Change [4, 6]: No
Purity (% of Initial) [4, 6]: 100.1 % of Initial
Form Change ([4]; 80% C/1 day): No
Purity (% of Initial) ([4]; 80% C/1 day): 99.9 % of Initial
Solid state stability, form change or HPLC purity decrease ([4]; any of the storage conditions): No form change or HPLC purity decrease were observed
